Measured values published in PMC10451632, “Site Mutation Improves the Expression and Antimicrobial Properties of Fungal Defense” (Antibiotics, 2023).
Converted amounts (≈) assume the structure as drawn. Bridge positions count the residues as written; N and C are the ends. Peptide text beside a SMILES is read from it.

Legend:
[1] = pH stability, MIC read-out; assay type: physicochemical; conditions: pH from 2 to 10, buffers, 37 °C, 4 h, MIC read-out after dilution, triplicate
Description: PN7 dissolved in physiological saline solution was prepared into mother liquor with a concentration of 1280 μg/mL and incubated at different temperatures for 1 h. PN7 was dissolved in different pH buffers at 37 °C for 4 h. After double gradient dilution, MIC assays were used to detect the change in antibacterial activity.

human keratinocyte HaCaT = assay: Cytotoxicity, MTT assay; assay type: cell-based; conditions: HaCaT cells, at 128 mg/mL (so in the source)
Description: (§1) The cytotoxicity of PN7 was evaluated by MTT (Beyotime, Shanghai, China) assay.

[2] = system: mouse macrophages RAW264.7; assay: Cytotoxicity, MTT assay; assay type: cell-based
Description: as §1

S. aureus ATCC 43300 [3] = assay: Salt stability, MIC read-out; assay type: cell-based, Staphylococcus aureus
Description: The influence of ions on PN7 activity was determined in two ways.
The first method of operation: PN7 was prepared into 1280 μg/mL mother liquor supplemented with 50, 100, 200, 300, and 500 mM NaCl (or KCl, MgCl2, CaCl2), then was diluted twice gradient by ddH2O. Then, 10 μL was added into 90 μL bacterial solution and cultured for 16–18 h to determine the MIC.
The second method of operation: 10 μL peptide solution and 10 μL NaCl (or KCl, MgCl2, CaCl2) solution with different concentrations were added to 80 μL bacterial solution. The final concentration of ions in the whole system was 50, 100, 150, 200, and 250 mM. The MIC against S. aureus ATCC 43300 was determined.

[4] = Stability in simulated intestinal fluid, MIC read-out; assay type: in vitro ADME
Description: (§2) The stability of peptide PN7 in SGF, SIF, and 25% or 50% mouse serum was carried out as previously described. A final concentration of 1280 μg/mL PN7 was prepared and incubated at 37 °C and then diluted twice. The MIC was determined.

S. aureus ATCC 43300 [5] = assay: Membrane permeability, PI staining by FACS; assay type: cell-based, Staphylococcus aureus; conditions: 2× MIC, 10^8 CFU/mL, 37 °C
Description: Figure 8 In vitro antimicrobial analysis of PN7. (A): Time-kill curve of PN7, Plectasin, and vancomycin against S. aureus ATCC. All experiments were performed in triplicate. (B): The PAE of 1×, 2× and 4× MIC of PN7 and vancomycin against S. aureus ATCC 43300 (the MIC values of PN7 and vancomycin against S. aureus ATCC 43300 were 8 μg/mL and 1μg/mL, respectively). All experiments were performed in triplicate. (C): The morphological influence of PN7 on S. aureus ATCC 43300 was observed by SEM. (D,E): The effects of PN7 (D) and Plectasin (E)) on membrane permeability were analyzed by FACS. The logarithmic phase S. aureus ATCC 43300 cells (10^8 CFU/mL) were incubated with or without 2× MIC peptide solutions at 37 °C at different times. All experiments were performed in triplicate. Ple stands for the Plectasin treatment group, Van stands for the vancomycin treatment group, and CK stands for the untreated group. TEXT PRINTED IN THE PICTURE: (D) PN7: 34.4% (2×; 90min); 31.2% (2×; 75min); 30.4% (2×; 60min); 19.2% (2×; 45min); 16.7% (2×; 30min); 1.94% (2×; 15min) | (E) Ple: 32.0% (2×; 90min); 27.4% (2×; 75min); 25.2% (2×; 60min); 12.8% (2×; 45min); 12.0% (2×; 30min); 2.11% (2×; 15min) DOUBTS OF THE COPYIST ABOUT THIS PICTURE: Panels D and E: the picture prints no measure for the percentages, only labels such as "2×PN7-90min: 34.4%" / Panels D and E: "CK: 0.54%" is the untreated control, not a substance, and was left out
The fluorescent dye propidium iodide (PI; Solarbio, Beijing, China) was used to detect the effect of PN7 on the membrane permeability of Staphylococcus aureus. The test method refers to the descriptions in previous studies.

[6] = Stability in simulated gastric fluid, MIC read-out; assay type: in vitro ADME
Description: as §2

S. aureus ATCC 43300 [7] = assay: SEM morphological observation; assay type: cell-based, Staphylococcus aureus; conditions: 2× MIC, 30 min
Description: To further characterize the bactericidal effects of peptide, SEM was used to visualize the morphological changes. S. aureus ATCC 43300 cells were treated with PN7. Cells for SEM were processed as described previously.

S. aureus ATCC 43300 [8] = assay: Post antibiotic effect (PAE); assay type: cell-based, Staphylococcus aureus
From the text: The post-antibiotic effect reflects the inhibitory effect on the growth of pathogenic bacteria after short contact with drugs, which is related to the strength of the bactericidal activity of drugs. The test method of the PAE of PN7 against S. aureus ATCC 43300 refers to the descriptions in previous studies.

P. aeruginosa CICC 21630 = assay: MIC, microtiter broth dilution; assay type: cell-based, Pseudomonas aeruginosa; conditions: MHB, 10^5 CFUs/mL, 16–18 h at 37 °C
Description: (§3) The MIC value of PN7 against bacteria was determined by the microtiter broth dilution method. Briefly, bacteria grown to the exponential phase were diluted into MHB; subsequently, 90 μL of bacterial suspension (10^5 CFUs/mL) was mixed with 10 μL of different concentrations of PN7 in a sterilized 96-well microtiter plate (Nunc). MIC values were recorded after incubation for 16–18 h at 37 °C based on the lowest concentrations of peptides in which no visible bacterial growth was observed.

E. coli CVCC 1515 = assay: MIC, microtiter broth dilution; assay type: cell-based, Escherichia coli; conditions: MHB, 10^5 CFUs/mL, 16–18 h at 37 °C
Description: as §3

E. coli ATCC 25922 = assay: MIC, microtiter broth dilution; assay type: cell-based, Escherichia coli; conditions: MHB, 10^5 CFUs/mL, 16–18 h at 37 °C
Description: as §3

E. coli O157 = assay: MIC, microtiter broth dilution; assay type: cell-based, Escherichia coli; conditions: MHB, 10^5 CFUs/mL, 16–18 h at 37 °C
Description: as §3

S. aureus CICC 10473 = assay: MIC, microtiter broth dilution; assay type: cell-based, Staphylococcus aureus; conditions: MHB, 10^5 CFUs/mL, 16–18 h at 37 °C
Description: as §3

[9] = 1280 μg/mL PN7, 37 °C, then two-fold dilution, triplicate

CC[C@H](C)[C@@H]1NC(=O)[C@H](CO)NC(=O)[C@H](CCCCN)NC(=O)[C@@H]2CSSC[C@@H](C(=O)N[C@@H](Cc3ccc(O)cc3)C(=O)O)NC(=O)[C@H](CCCCN)NC(=O)[C@@H]3CSSC[C@H](NC(=O)[C@H](CCCNC(=N)N)NC(=O)CNC(=O)[C@H](CC(=O)O)NC(=O)[C@H](CC(=O)O)NC(=O)[C@H](CCC(=O)O)NC(=O)[C@H](Cc4ccc(O)cc4)NC(=O)[C@H](Cc4c[nH]c5ccccc45)NC(=O)[C@@H]4CCCN4C(=O)CNC(=O)[C@H](CC(N)=O)NC(=O)[C@@H](NC(=O)CNC(=O)[C@H](Cc4ccccc4)NC(=O)CN)CSSC[C@H](NC(=O)[C@H](Cc4ccc(O)cc4)NC(=O)CNC(=O)CNC(=O)[C@H](CCCCN)NC(=O)[C@H](Cc4ccc(O)cc4)NC(=O)CNC(=O)[C@H](CCCCN)NC1=O)C(=O)N[C@@H](C)C(=O)N[C@@H](CCCCN)C(=O)NCC(=O)NCC(=O)N[C@@H](Cc1ccccc1)C(=O)N[C@@H](C(C)C)C(=O)N3)C(=O)N[C@@H](Cc1c[nH]cn1)C(=O)N[C@@H](CC(N)=O)C(=O)N[C@@H](Cc1c[nH]cn1)C(=O)N2 [PN7] (H-GFGCNGPWYEDDGRCHNHCKSIKGYKGGYCAKGGFVCKCY-OH; disulfide 4-30, 15-37, 19-39 (inferred); N-terminus and C-terminus assumed)
pH stability (antibacterial activity) [1]: stable | cell viability (human keratinocyte HaCaT): 85.36% | survival ([2]; RAW264.7 and HaCaT cells (Figure 6B,C), 128 μg/mL): > 85% | cell viability ([2]; RAW264.7 cells, MTT, at 128 mg/mL (so in the source)): 92.77% | influence of monovalent cations (Na+ and K+) on activity (S. aureus ATCC 43300 [3]; NaCl or KCl, MIC against S. aureus ATCC 43300): no influence | MIC value after incubation with different ions (S. aureus ATCC 43300 [3]; mother liquor with 50–500 mM salt, then diluted with ddH2O): did not change | activity after incubation with simulated intestinal fluid (SIF) [4, 9]: abolished the activity | sensitivity to trypsin ([4]; Figure 7E): sensitive to trypsin | PI-staining percentage of cells (S. aureus ATCC 43300 [5]; 30 min): 16.7% | PI-staining percentage of cells (S. aureus ATCC 43300 [5]; 60 min): 30.4% | PI-staining percentage of cells (S. aureus ATCC 43300 [5]; 90 min): 34.4% | activity after incubation with simulated gastric juice (SGF) [6, 9]: conserved full activity | resistance to pepsin ([6]; Figure 7E): resistant to pepsin | cell morphology by SEM (S. aureus ATCC 43300 [7]): shrinkage only appears in the cell surface | gap of PAE, PN7 versus vancomycin (S. aureus ATCC 43300 [8]; 1× MIC): 12 times | gap of PAE, PN7 versus vancomycin (S. aureus ATCC 43300 [8]; 2× MIC): 3.648 times | gap of PAE, PN7 versus vancomycin (S. aureus ATCC 43300 [8]; 4× MIC): 3.513 times | MIC (P. aeruginosa CICC 21630): >128 µg/mL | MIC (E. coli CVCC 1515): >128 µg/mL | MIC (E. coli ATCC 25922): >128 µg/mL | MIC (E. coli O157): >128 µg/mL | MIC (S. aureus CICC 10473): 4 µg/mL (≈ 0.908 µM)
